≈ marks a conversion by molar mass, not a printed value.
What was measured:
[1] = system: Pseudomonas aeruginosa (Pa); test: Minimum inhibitory concentration (MIC), bacteria in nutrient agar; format: cell-based, Pseudomonas aeruginosa ATCC 10145; conditions: 48 hours
Procedure: (§1) The minimum inhibitory concentration (MIC) for the compounds listed in Table I is determined for 9 bacteria, using nutrient agar, and 7 yeast and fungi, using malt yeast agar. A one percent solution of the test compound is prepared in a mixture of acetone and water.
(§2) Nutrient agar is prepared at pH 6.8, representing a neutral medium, and at pH 8.2, representing an alkaline medium. The nutrient agars are prepared by adding 23 g of nutrient agar to one liter of deionized water. In addition, the alkaline medium is prepared by adjusting a 0.04M solution of N-[tris-(hydroxymethyl)methyl]glycine buffered deionized water with concentrated sodium hydroxide to a pH of 8.5.
(§3) The test tubes containing the agar are cooled in a water bath until the temperature of the agar is 48° C. Then, an appropriate amount of the one percent solution of the test compound is added (except in the controls where no compound is added) to the respective test tubes so that the final concentrations are 500, 250, 100, 50, 25, 10, 5, 2.5, 1.0 and zero parts per million of the test compound in the agar, thus having a known concentration of test compound dispersed therein. The contents of the test tubes are then transferred to respective petri plates. After drying for 24 hours, the petri plates containing nutrient agar are inoculated with bacteria and those containing malt yeast agar are inoculated with yeast and fungi.
(§4) The inoculation with bacteria is accomplished by using the following procedure. Twenty-four hour-cultures of each of the bacteria are prepared by incubating the respective bacteria in tubes containing nutrient broth for 24 hours at 30° C. in a shaker. Dilutions of each of the 24 hour-cultures are made so that nine separate suspensions (one for each of the nine test bacteria) are made, each containing 10^8 colony forming units (CFU) per mL of suspension of a particular bacteria. Aliquots of 0.3 mL of each of the bacterial suspensions are used to fill the individual wells of Steer's Replicator. For each microbial suspension, 0.3 mL was used to fill three wells (i.e., three wells of 0.3 mL each) so that for the nine different bacteria, 27 wells are filled. The Steer's Replicator is then used to inoculate both the neutral and alkaline pH nutrient agar petri plates.
(§5) The inoculated petri plates are incubated at 30° C. for 48 hours and then read to determine if the test compound which is incorporated into the agar prevented growth of the respective bacteria.
(§6) Table II lists the bacteria, yeast and fungi used in the MIC test described above along with their respective American Type Culture Collection (ATCC) identification numbers.
(§7) In Tables III and IV, the MIC values of the compounds described in Table I as compared to the MIC of a standard commercial preservative (with 1-(3-chloroallyl)-3,5,7-triaza-1-azoniaadamantane chloride as the active agent and referred to in Tables III and IV as "STANDARD I") are set forth for the bacteria organisms and yeast/fungi organisms which are listed in Table II.

[2] = system: Escherichia coli (Ec); test: as above; format: cell-based, Escherichia coli ATCC 11229; conditions: 48 hours
Procedure: as §1, §2, §3, §4, §5, §6, §7

[3] = system: marine organisms; test: Marine antifouling activity, coated test panels exposed to marine environment; conditions: 6 weeks, scale 10 (completely free of growth) to 0 (completely covered)
Procedure: Test panels are prepared from clear, rigid polyvinyl chloride film that is 0.381×10^-3 m thick and has one textured surface. The test panels are 0.1524 m by 0.1524 m squares that have 0.00635 m holes punched at corners on 0.127 m centers. A 0.102 square template, with a 0.067 m diameter hole at the center, is attached to the center of the textured surface of the test panels.
A candidate marine antifoulant compound (1.0 g) is stirred into a resinous latex binder (9.0 g). A portion of the compound/binder mixture (1.5 g) is added to the center of the test panel and uniformly spread over the circular area inside the template.
Water is added dropwise as needed to properly spread the compound/binder mixture. The template prevents the compound/binder mixture from spreading beyond the uncovered area. […] The template is then removed. The test panel is then allowed to dry for 8 to 12 hours at room temperature.
Two test panels are prepared for each candidate marine antifoulant compound. Two control test panels are also prepared by only treating with the resinous latex binder. One test panel of each candidate marine […] compound is attached over a white background to the topside of an exposure support apparatus. The second test panel is attached over a black background to the underside of the exposure support apparatus. The exposure support apparatus is placed horizontally 0.0254 m under a marine surface with the white background topside facing up.
After being removed from the exposure support apparatus, each test panel is inspected and rated for marine organism growth on both the treated and untreated areas of the test panel. The marine organisms present on the treated and untreated areas are noted. The presence of algae spores and bacterial slime are noted but not included in rating each test panel. The test panels are rated on a scale from 10 (representing completely free of marine organism growth) to 0 (representing completely covered with marine organism growth).
In addition, test panels were prepared using tributyl tin oxide, a known marine antifouling compound.

[4] = system: Aspergillus niger (An); test: Minimum inhibitory concentration (MIC), yeast/fungi in malt yeast agar; format: cell-based, Aspergillus niger ATCC 16404; conditions: 30° C., 72 hours for fungi
Procedure: as §1
(§8) Malt yeast agar is prepared by adding 3 g yeast extract and 45 g malt agar per liter of deionized water. The specific agar is dispensed in 30 mL aliquots into 25×200 mm test tubes, capped and autoclaved for 15 minutes at 115° C.
as §3
(§9) The inoculation with the yeast and fungi is accomplished as follows. Cultures of yeast and fungi are incubated for seven days on malt yeast agar at 30° C. These cultures are used to prepare suspensions by the following procedure. A suspension of each organism is prepared by adding 10 mL of sterile saline and 10 microliters of octylphenoxy polyethoxy ethanol to the agar slant of yeast or fungi. The sterile saline/octylphenoxy polyethoxy ethanol solution is then agitated with a sterile swab to suspend the microorganism grown on the slant. Each resulting suspension is diluted into sterile saline (1 part suspension to 9 parts sterile saline). Aliquots of these dilutions are placed in individual wells of Steer's Replicator and petri plates inoculated as previously described. The petri plates are incubated at 30° C. and read after 48 hours for yeast and 72 hours for fungi.
as §6, §7

[5] = system: Staphylococcus aureus (Sa); test: Minimum inhibitory concentration (MIC), bacteria in nutrient agar; format: cell-based, Staphylococcus aureus ATCC 6538; conditions: 48 hours
Procedure: as §1, §2, §3, §4, §5, §6, §7

[6] = system: Bacillus subtilis (Bs); test: as above; format: cell-based, Bacillus subtilis ATCC 8473; conditions: 48 hours
Procedure: as §1, §2, §3, §4, §5, §6, §7

[7] = system: Enterobacter aerogenes (Ea); test: as above; format: cell-based, Enterobacter aerogenes ATCC 13048; conditions: Klebsiella aerogenes, 48 hours
Procedure: as §1, §2, §3, §4, §5, §6, §7

[8] = system: Pseudomonas aeruginosa (PRD-10); test: as above; format: cell-based, Pseudomonas aeruginosa ATCC 15442; conditions: 48 hours
Procedure: as §1, §2, §3, §4, §5, §6, §7

[9] = system: Klebsiella pneumoniae (Kp); test: as above; format: cell-based, Klebsiella pneumoniae ATCC 8308; conditions: 48 hours
Procedure: as §1, §2, §3, §4, §5, §6, §7

[10] = system: Penicillium chrysogenum (Pc); test: Minimum inhibitory concentration (MIC), yeast/fungi in malt yeast agar; format: cell-based, Penicillium chrysogenum ATCC 9480; conditions: 30° C., 72 hours for fungi
Procedure: as §1, §8, §3, §9, §6, §7

[11] = system: Aureobasidium pullulan (Ap); test: as above; format: cell-based, Aureobasidium pullulan ATCC 16622; conditions: 30° C., read after 48 hours for yeast and 72 hours for fungi
Procedure: as §1, §8, §3, §9, §6, §7

[12] = system: Trichoderma viride (Tv); test: as above; format: cell-based, Trichoderma viride ATCC 8678; conditions: 30° C., 72 hours for fungi
Procedure: as §1, §8, §3, §9, §6, §7

[13] = system: Salmonella choleraesuis (Sc); test: Minimum inhibitory concentration (MIC), bacteria in nutrient agar; format: cell-based, Salmonella choleraesuis ATCC 10708; conditions: Salmonella enterica, 48 hours
Procedure: as §1, §2, §3, §4, §5, §6, §7

[14] = system: Proteus vulgaris (Pv); test: as above; format: cell-based, Proteus vulgaris ATCC 881; conditions: 48 hours
Procedure: as §1, §2, §3, §4, §5, §6, §7

[15] = system: Fusarium oxysporum (Fo); test: Minimum inhibitory concentration (MIC), yeast/fungi in malt yeast agar; format: cell-based, Fusarium oxysporum ATCC 48112; conditions: 30° C., 72 hours for fungi
Procedure: as §1, §8, §3, §9, §6, §7

[16] = system: Candida albicans (Ca); test: as above; format: cell-based, Candida albicans ATCC 10231; conditions: 30° C., 48 hours for yeast
Procedure: as §1, §8, §3, §9, §6, §7

[17] = system: Saccharomyces cerevisiae (Sc); test: as above; format: cell-based, Saccharomyces cerevisiae ATCC 4105; conditions: 30° C., 48 hours for yeast
Procedure: as §1, §8, §3, §9, §6, §7

## N#CSCSc1nnnn1-c1ccccc1 [Example I, 1-Phenyl-5-thiomethylthiocyanato-1H-tetrazole]
[1]; nutrient agar pH 6.8, 30° C.
  MIC: 100 µg/mL (≈ 401 µM)
[1]; nutrient agar pH 8.2, 30° C.
  MIC: 100 µg/mL (≈ 401 µM)
[2]; nutrient agar pH 6.8, 30° C.
  MIC: 50 µg/mL (≈ 201 µM)
[2]; nutrient agar pH 8.2, 30° C.
  MIC: 250 µg/mL (≈ 1000 µM)
[3]; bottom panel (black background)
  Marine Antifouling Rating, 6 Week Test, Bottom Panel: 9
[3]; top panel (white background)
  Marine Antifouling Rating, 6 Week Test, Top Panel: 9
[4]
  MIC: 5 µg/mL (≈ 20.1 µM)
[5]; nutrient agar pH 6.8, 30° C.
  MIC: 25 µg/mL (≈ 100 µM)
[5]; nutrient agar pH 8.2, 30° C.
  MIC: 50 µg/mL (≈ 201 µM)
[6]; nutrient agar pH 6.8, 30° C.
  MIC: < 10 µg/mL
[6]; nutrient agar pH 8.2, 30° C.
  MIC: 50 µg/mL (≈ 201 µM)
[7]; nutrient agar pH 6.8, 30° C.
  MIC: 250 µg/mL (≈ 1000 µM)
[7]; nutrient agar pH 8.2, 30° C.
  MIC: 500 µg/mL (≈ 2010 µM)
[8]; nutrient agar pH 6.8, 30° C.
  MIC: 250 µg/mL (≈ 1000 µM)
[8]; nutrient agar pH 8.2, 30° C.
  MIC: 250 µg/mL (≈ 1000 µM)
[9]; nutrient agar pH 6.8, 30° C.
  MIC: 100 µg/mL (≈ 401 µM)
[9]; nutrient agar pH 8.2, 30° C.
  MIC: 100 µg/mL (≈ 401 µM)
[10]
  MIC: 2.5 µg/mL (≈ 10 µM)
[11]
  MIC: 2.5 µg/mL (≈ 10 µM)
[12]
  MIC: 25 µg/mL (≈ 100 µM)
[13]; nutrient agar pH 6.8, 30° C.
  MIC: 100 µg/mL (≈ 401 µM)
[13]; nutrient agar pH 8.2, 30° C.
  MIC: 250 µg/mL (≈ 1000 µM)
[14]; nutrient agar pH 6.8, 30° C.
  MIC: 25 µg/mL (≈ 100 µM)
[14]; nutrient agar pH 8.2, 30° C.
  MIC: 100 µg/mL (≈ 401 µM)
[15]
  MIC: 10 µg/mL (≈ 40.1 µM)
[16]
  MIC: 25 µg/mL (≈ 100 µM)
[17]
  MIC: 5 µg/mL (≈ 20.1 µM)
